According to patent US20070043024A1, “Azacyclic compounds as inhibitors of sensory neurone specific channels” (priority 2003, published 2007):
pIC50: −log10 of the molar value.

These compounds were tested against T1, human Nav1.8 (hNav1.8) ion channel (Homo sapiens, UniProt Q9Y5Y9) (assay: Inhibition of human Nav1.8 stably expressed in SH-SY-5Y cells (membrane potential dye fluorescence assay)). Conditions: not given.
T1 construct: expressed in transfected cells
T1 sequence (Q9Y5Y9 whole entry): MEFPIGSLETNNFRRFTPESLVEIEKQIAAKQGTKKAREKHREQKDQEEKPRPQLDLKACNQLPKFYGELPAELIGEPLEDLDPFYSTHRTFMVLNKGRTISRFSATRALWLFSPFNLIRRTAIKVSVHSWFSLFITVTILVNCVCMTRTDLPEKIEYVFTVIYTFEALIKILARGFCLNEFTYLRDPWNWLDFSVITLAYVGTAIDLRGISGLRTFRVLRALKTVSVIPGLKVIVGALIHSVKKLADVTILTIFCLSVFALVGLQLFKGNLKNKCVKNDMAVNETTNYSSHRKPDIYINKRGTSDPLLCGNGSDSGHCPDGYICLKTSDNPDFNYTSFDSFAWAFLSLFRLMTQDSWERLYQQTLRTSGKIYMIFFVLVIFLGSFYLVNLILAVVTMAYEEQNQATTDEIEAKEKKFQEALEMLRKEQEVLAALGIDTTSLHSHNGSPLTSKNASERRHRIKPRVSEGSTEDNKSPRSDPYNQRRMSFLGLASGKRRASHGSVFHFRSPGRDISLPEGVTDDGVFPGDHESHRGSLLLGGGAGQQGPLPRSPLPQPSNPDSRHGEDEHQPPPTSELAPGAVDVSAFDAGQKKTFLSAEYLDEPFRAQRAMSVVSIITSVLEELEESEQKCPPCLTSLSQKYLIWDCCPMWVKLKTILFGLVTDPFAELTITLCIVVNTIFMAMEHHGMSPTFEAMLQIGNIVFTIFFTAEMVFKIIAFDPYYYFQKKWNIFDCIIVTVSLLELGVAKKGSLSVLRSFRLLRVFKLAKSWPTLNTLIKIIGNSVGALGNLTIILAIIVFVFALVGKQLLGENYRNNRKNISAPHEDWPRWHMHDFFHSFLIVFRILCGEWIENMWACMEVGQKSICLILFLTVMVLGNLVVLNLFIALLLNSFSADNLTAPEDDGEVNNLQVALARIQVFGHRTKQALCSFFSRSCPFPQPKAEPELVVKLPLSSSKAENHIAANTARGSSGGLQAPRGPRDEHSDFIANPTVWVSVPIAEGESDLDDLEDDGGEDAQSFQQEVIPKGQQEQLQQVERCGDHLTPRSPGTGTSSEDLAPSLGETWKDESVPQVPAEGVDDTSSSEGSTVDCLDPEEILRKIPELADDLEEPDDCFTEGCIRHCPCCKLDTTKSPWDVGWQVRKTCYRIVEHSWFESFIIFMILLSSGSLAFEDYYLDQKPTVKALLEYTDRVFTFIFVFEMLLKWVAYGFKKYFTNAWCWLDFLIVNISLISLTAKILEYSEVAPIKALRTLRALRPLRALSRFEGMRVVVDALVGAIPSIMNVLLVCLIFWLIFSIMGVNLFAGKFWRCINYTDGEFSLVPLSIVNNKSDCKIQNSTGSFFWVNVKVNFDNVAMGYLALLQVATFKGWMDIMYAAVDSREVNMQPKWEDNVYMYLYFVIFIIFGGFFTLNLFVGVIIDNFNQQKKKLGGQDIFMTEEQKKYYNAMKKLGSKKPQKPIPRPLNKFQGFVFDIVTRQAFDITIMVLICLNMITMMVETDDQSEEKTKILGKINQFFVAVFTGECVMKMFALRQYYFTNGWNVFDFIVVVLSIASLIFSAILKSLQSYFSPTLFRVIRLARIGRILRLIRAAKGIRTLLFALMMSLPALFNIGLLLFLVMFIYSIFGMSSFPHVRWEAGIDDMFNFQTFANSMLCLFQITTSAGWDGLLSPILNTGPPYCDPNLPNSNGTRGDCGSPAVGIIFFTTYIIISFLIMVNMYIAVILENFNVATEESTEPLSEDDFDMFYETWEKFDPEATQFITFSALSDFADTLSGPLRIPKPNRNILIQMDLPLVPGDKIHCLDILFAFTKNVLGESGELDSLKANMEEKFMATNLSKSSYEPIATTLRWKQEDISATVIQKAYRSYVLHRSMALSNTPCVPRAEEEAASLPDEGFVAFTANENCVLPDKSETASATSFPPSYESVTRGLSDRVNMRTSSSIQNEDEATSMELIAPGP
Format: cell-based
`O=C(CN1CCc2cccc(O)c2C1)N(c1ccccc1)c1ccc(O)cc1` [Compound 176, 2-(8-Hydroxy-3,4-dihydro-1H-isoquinolin-2-yl)-N-(4-hydroxy-phenyl)-N-phenyl-acetamide] was tested, and the pIC50 was 5.23.

Same assay, conditions: Table 2 (compound numbers of the list in the description); SH-SY-5Y hNav1.8 cells, inhibition of membrane depolarisation, FLIPR membrane potential dye, 250 nM TTX, test concentration range 100 μM-0.05 μM; read-out: IC50
With `COc1cccc2c1CN(CC(=O)NN(c1ccccc1)c1ccccc1)CC2` [Compound 168, (8-Methoxy-3,4-dihydro-1H-isoquinolin-2-yl)-acetic acid N′,N′-diphenyl-hydrazide] the pIC50 was 5.70.
In the case of `COc1cc2c(cc1OC)CN(CC(=O)NN(c1ccccc1)c1ccccc1)CC2` [Compound 169, (6,7-Dimethoxy-3,4-dihydro-1H-isoquinolin-2-yl)-acetic acid N′,N′-diphenyl-hydrazide], the pIC50 was 4.52.
`CCOC(=O)C1CN(C(=O)CN2CCc3cccc(O)c3C2)c2ccccc2O1` (stereo not shown) [Compound 170, 4-[2-(8-Hydroxy-3,4-dihydro-1H-isoquinolin-2-yl)-acetyl]-3,4-dihydro-2H-benzo[1,4]oxazine-2-carboxylic acid ethyl ester] gave a pIC50 of 5.77.
`CCOC(=O)C1CN(C(=O)CN2CCc3cccc(OC)c3C2)c2ccccc2O1` (stereo not shown) [Compound 171, 4-[2-(8-Methoxy-3,4-dihydro-1H-isoquinolin-2-yl)-acetyl]-3,4-dihydro-2H-benzo[1,4]oxazine-2-carboxylic acid ethyl ester] was tested, and the pIC50 was 5.76.
For `COc1cccc2c1CN(CC(=O)Nc1ccc(Oc3ccccc3)cc1)CC2` [Compound 172, 2-(8-Methoxy-3,4-dihydro-1H-isoquinolin-2-yl)-N-(4-phenoxy-phenyl)-acetamide], the pIC50 was 5.20.
`O=C(CN1CCc2cccnc2C1)N1c2ccccc2Oc2ccccc21` [Compound 173, 2-(5,8-Dihydro-6H-[1,7]naphthyridin-7-yl)-1-phenoxazin-10-yl-ethanone] showed a pIC50 of 5.25.
With `COc1cccc2c1CN(CCNC(=O)Nc1ccc(Oc3ccccc3)cc1)CC2` [Compound 174, 1-[2-(8-Methoxy-3,4-dihydro-1H-isoquinolin-2-yl)-ethyl]-3-(4-phenoxy-phenyl)-urea] the pIC50 was 6.26.
With `Nc1cccc2c1CN(CC(=O)N1c3ccccc3Oc3ccccc31)CC2` [Compound 175, 2-(8-Amino-3,4-dihydro-1H-isoquinolin-2-yl)-1-phenoxazin-10-yl-ethanone] the pIC50 was 5.82.
With `O=C(CN1Cc2ccccc2C1)N1c2ccccc2Oc2ccccc21` [Compound 178, 2-(1,3-Dihydro-isoindol-2-yl)-1-phenoxazin-10-yl-ethanone] the pIC50 was 6.21.
Compound `COc1cccc2c1CN(CC(=O)NC1c3ccccc3Oc3ccccc31)CC2` [Compound 180, 2-(8-Methoxy-3,4-dihydro-1H-isoquinolin-2-yl)-N-(9H-xanthen-9-yl)-acetamide] has a pIC50 of 5.28.
In the case of `O=C(CN1CCc2cccnc2C1)N(c1ccccc1)c1ccccc1` [Compound 181, 2-(5,8-Dihydro-6H-[1,7]naphthyridin-7-yl)-N,N-diphenyl-acetamide], the pIC50 was 4.69.
`COc1ccc(N(C(=O)CN2CCc3cccc(OC)c3C2)c2ccc(OC)cc2)cc1` [Compound 182, 2-(8-Methoxy-3,4-dihydro-1H-isoquinolin-2-yl)-N,N-bis-(4-methoxy-phenyl)-acetamide] showed a pIC50 of 5.67.
Work on `COc1ccc(N(C(=O)CN2CCc3cccc(O)c3C2)c2ccc(OC)cc2)cc1` [Compound 183, 2-(8-Hydroxy-3,4-dihydro-1H-isoquinolin-2-yl)-N,N-bis-(4-methoxy-phenyl)-acetamide] yielded a pIC50 of 5.65.
`COc1cccc2c1CN(CC(=O)Nc1ccccc1Oc1ccccc1)CC2` [Compound 184, 2-(8-Methoxy-3,4-dihydro-1H-isoquinolin-2-yl)-N-(2-phenoxy-phenyl)-acetamide] was tested, and the pIC50 was 4.96.
`O=C(CN1CCc2cccc(O)c2C1)Nc1ccccc1Oc1ccccc1` [Compound 185, 2-(8-Hydroxy-3,4-dihydro-1H-isoquinolin-2-yl)-N-(2-phenoxy-phenyl)-acetamide] was tested, and the pIC50 was 5.73.
In the case of `COc1cccc2c1CN(CC(=O)NNC(=O)N(c1ccccc1)c1ccccc1)CC2` [Compound 186, 1-[(8-Methoxy-3,4-dihydro-1H-isoquinolin-2-yl)-acetyl]-4,4-diphenylsemicarbazide], the pIC50 was 4.54.
Work on `COc1cccc2c1CN(CC(=O)N1CC(c3nnc(C)o3)Oc3ccccc31)CC2` (stereo not shown) [Compound 187, 2-(8-Methoxy-3,4-dihydro-1H-isoquinolin-2-yl)-1-[2-(5-methyl-[1,3,4]oxadiazol-2-yl)-2,3-dihydro-benzo[1,4]oxazin-4-yl]-ethanone] yielded a pIC50 of 4.72.
`COc1cccc2c1CN(CC(=O)N(c1ccccc1O)c1ncccc1N)CC2` [Compound 188, N-(3-Amino-pyridin-2-yl)-N-(2-hydroxy-phenyl)-2-(8-methoxy-3,4-dihydro-1H-isoquinolin-2-yl)-acetamide] gave a pIC50 of 4.92.
With `COc1cccc2c1CN(CCC(=O)N1c3ccccc3Oc3ccccc31)CC2` [Compound 189, 3-(8-Methoxy-3,4-dihydro-1H-isoquinolin-2-yl)-1-phenoxazin-10-yl-propan-1-one] the pIC50 was 6.29.
With `O=C(CCN1CCc2cccc(O)c2C1)N1c2ccccc2Oc2ccccc21` [Compound 190, 3-(8-Hydroxy-3,4-dihydro-1H-isoquinolin-2-yl)-1-phenoxazin-10-yl-propan-1-one] the pIC50 was 6.28.
With `CS(=O)(=O)Oc1cccc2c1CN(CC(=O)N1c3ccccc3Oc3ccccc31)CC2` [Compound 191, Methanesulfonic acid 2-(2-oxo-2-phenoxazin-10-yl-ethyl)-1,2,3,4-tetrahydro-isoquinolin-8-yl ester] the pIC50 was 5.90.
Work on `COc1cccc2c1CN(CC(=O)N1CCOc3ccccc31)CC2` [Compound 192, 1-(2,3-Dihydro-benzo[1,4]oxazin-4-yl)-2-(8-methoxy-3,4-dihydro-1H-isoquinolin-2-yl)-ethanone] yielded a pIC50 of 5.04.
In the case of `O=C(CN1CCc2ccc(O)cc2C1)N1c2ccccc2Oc2ccccc21` [Compound 193, 2-(7-Hydroxy-3,4-dihydro-1H-isoquinolin-2-yl)-1-phenoxazin-10-yl-ethanone], the pIC50 was 5.50.
For `O=C(CN1CCc2cc(O)ccc2C1)N1c2ccccc2Oc2ccccc21` [Compound 194, 2-(6-Hydroxy-3,4-dihydro-1H-isoquinolin-2-yl)-1-phenoxazin-10-yl-ethanone], the pIC50 was 5.54.
For `O=C(CN1CCc2c(O)cccc2C1)N1c2ccccc2Oc2ccccc21` [Compound 195, 2-(5-Hydroxy-3,4-dihydro-1H-isoquinolin-2-yl)-1-phenoxazin-10-yl-ethanone], the pIC50 was 5.73.
`COc1cccc2c1CN(CC(=O)N1c3ccccc3Oc3ccccc31)C2` [Compound 196, 2-(4-Methoxy-1,3-dihydro-isoindol-2-yl)-1-phenoxazin-10-yl-ethanone] gave a pIC50 of 6.03.
Work on `CS(=O)(=O)N(c1cccc2c1CN(CC(=O)N1c3ccccc3Oc3ccccc31)CC2)S(C)(=O)=O` [Compound 197, N-Methanesulfonyl-N-[2-(2-oxo-2-phenoxazin-10-yl-ethyl)-1,2,3,4-tetrahydro-isoquinolin-8-yl]-methanesulfonamide] yielded a pIC50 of 5.42.
For `CS(=O)(=O)Nc1cccc2c1CN(CC(=O)N1c3ccccc3Oc3ccccc31)CC2` [Compound 198, N-[2-(2-Oxo-2-phenoxazin-10-yl-ethyl)-1,2,3,4-tetrahydro-isoquinolin-8-yl]-methanesulfonamide], the pIC50 was 5.74.
With `COc1cccc2c1CN(CC(=O)N1c3ccccc3Oc3cnn(C)c31)CC2` [Compound 199, 2-(8-Methoxy-3,4-dihydro-1H-isoquinolin-2-yl)-1-(1-methyl-1H-4-oxa-1,2,9-triaza-cyclopenta[b]naphthalen-9-yl)-ethanone] the pIC50 was 5.08.
With `COc1cccc2c1CN(C(C)C(=O)N1c3ccccc3Oc3ccccc31)CC2` (stereo not shown) [Compound 200, 2-(8-Methoxy-3,4-dihydro-1H-isoquinolin-2-yl)-1-phenoxazin-10-yl-propan-1-one] the pIC50 was 5.78.
`O=C(NCCN1CCc2cccnc2C1)N1c2ccccc2Oc2ccccc21` [Compound 201, Phenoxazine-10-carboxylic acid [2-(5,8-dihydro-6H-[1,7]naphthyridin-7-yl)-ethyl]-amide] gave a pIC50 of 5.22.
With `O=C(CN1Cc2cccc(O)c2C1)N1c2ccccc2Oc2ccccc21` [Compound 202, 2-(4-Hydroxy-1,3-dihydro-isoindol-2-yl)-1-phenoxazin-10-yl-ethanone] the pIC50 was 6.17.
`CS(=O)(=O)Oc1cccc2c1CN(CC(=O)N1c3ccccc3Oc3ccccc31)C2` [Compound 203, Methanesulfonic acid 2-(2-oxo-2-phenoxazin-10-yl-ethyl)-2,3-dihydro-1H-isoindol-4-yl ester] was tested, and the pIC50 was 5.95.
`COc1cccc2c1CN(CC(=O)n1c3ccccc3c3ccccc31)CC2` [Compound 204, 1-Carbazol-9-yl-2-(8-methoxy-3,4-dihydro-1H-isoquinolin-2-yl)-ethanone] was tested, and the pIC50 was 4.97.
Work on `COc1cccc2c1CN(CC(=O)N1c3ccccc3OCC1C)CC2` (stereo not shown) [Compound 205, 2-(8-Methoxy-3,4-dihydro-1H-isoquinolin-2-yl)-1-(3-methyl-2,3-dihydro-benzo[1,4]oxazin-4-yl)-ethanone] yielded a pIC50 of 5.33.
`COc1cccc2c1CN(CC(=O)N1c3ccccc3OCC1C(C)(C)C)CC2` (stereo not shown) [Compound 206, 1-(3-tert-Butyl-2,3-dihydro-benzo[1,4]oxazin-4-yl)-2-(8-methoxy-3,4-dihydro-1H-isoquinolin-2-yl)-ethanone] showed a pIC50 of 5.79.
Compound `COc1cccc2c1CN(CC(=O)N1Cc3ccccc3Oc3ccccc31)CC2` [Compound 207, 1-(11H-Dibenzo[b,f][1,4]oxazepin-10-yl)-2-(8-methoxy-3,4-dihydro-1H-isoquinolin-2-yl)-ethanone] has a pIC50 of 6.03.
`CCC1COc2ccccc2N1C(=O)CN1CCc2cccc(OC)c2C1` (stereo not shown) [Compound 208, 1-(3-Ethyl-2,3-dihydro-benzo[1,4]oxazin-4-yl)-2-(8-methoxy-3,4-dihydro-1H-isoquinolin-2-yl)-ethanone] was tested, and the pIC50 was 5.77.
`CS(=O)(=O)Nc1cccc2c1CN(CC(=O)N1c3ccccc3Oc3ccccc31)C2` [Compound 210, N-[2-(2-Oxo-2-phenoxazin-10-yl-ethyl)-2,3-dihydro-1H-isoindol-4-yl]-methanesulfonamide] showed a pIC50 of 5.46.
